Consider 21 molecules from ChEMBL document CHEMBL1123562, “N-substituted oxopyrimidines and nucleosides: structure-activity relationship for hypnotic activity as central nervous system depressant” (J Med Chem, 1987).

Several values for one entry are separate records, joined by “and”; a condition that tells them apart may be missing. Equal values may be shown once.

Series [1] deals with Mus musculus. The series is described as follows: Hypnotic activity expressed as sleeping time was determined in ddN strain mice by the icv administration of 1.0 uMol/mouse of the compound. The format is functional.
For series [2], the system named is Mus musculus. The series is described as follows: Tested for PB (pentobarbital)-induced sleep effect expressed as percent control of sleeping time at a dosage (icv) of 2.0 uM concentration. In kind it is functional.
For series [3], the system named is Mus musculus. The series is described as follows: Hypnotic activity expressed as sleeping time was determined in ddN strain mice by the icv administration of 2.0 uMol/mouse of the compound. The format is functional.
Series [4] concerns Mus musculus. The series can be described thus: Hypnotic activity expressed as ratio of number of animals slept and total number of animals tested was determined in ddN strain mice by the icv administration of 0.1 mmol/kg of the compound; 8/8. In kind it is functional.
Series [5] relates to Mus musculus. The series can be described thus: Hypnotic activity expressed as ratio of number of animals slept and total number of animals tested was determined in ddN strain mice by the icv administration of 0.3 mmol/kg of the compound; 6/6. In kind it is functional.
Series [6] relates to Mus musculus. The series is described as follows: Hypnotic activity expressed as ratio of number of animals slept and total number of animals tested was determined in ddN strain mice by the icv administration of 0.5 mmol/kg of the compound; 4/4. The format is functional.
Series [7] has as its system Mus musculus. The series can be described thus: Hypnotic activity in ddN strain mice by the iv administration of 0.5 mmol/kg; No activity. The format is functional, organism-based.
The subject of series [8] is Mus musculus. The series can be described thus: Hypnotic activity expressed as sleeping time was determined in ddN strain mice by the icv administration of 3.0 uMol/mouse of the compound. In kind it is functional.
The test system of series [9] is Mus musculus. The series can be described thus: Hypnotic activity expressed as sleeping time was determined in ddN strain mice by the iv administration of 0.5 mmol/kg of the compound. In kind it is functional.
Series [10] concerns Mus musculus. The series can be described thus: Hypnotic activity expressed as sleeping time was determined in ddN strain mice by the iv administration of 0.1 mmol/kg of the compound; None indicates that the mouse could not fall into sleep. In kind it is functional, organism-based.
Series [11] relates to Mus musculus. The series can be described thus: Hypnotic activity expressed as sleeping time was determined in ddN strain mice by the iv administration of 0.3 mmol/kg of the compound. In kind it is functional.
The nature of series [12]: Partition coefficient is determined for the compound from its equilibrium concentrations in organic phase to that in aqueous buffer of pH 7.4. The format is ADME. The conditions noted are these: octanol/water.
The test system of series [13] is Mus musculus. The series is described as follows: Hypnotic activity expressed as sleeping time was determined in ddN strain mice by the icv administration of 3.8 uMol/mouse of the compound; None indicates that the mouse could not fall into sleep. The format is functional, organism-based.
The subject of series [14] is Mus musculus. The series can be described thus: Tested for PB (pentobarbital)-induced sleep effect expressed as percent control of sleeping time at a dosage (icv) of 3.8 uM concentration. The format is functional.
Series [15] deals with Mus musculus. The series can be described thus: Hypnotic activity expressed as sleeping time was determined in ddN strain mice by the iv administration of 0.3 mmol/kg of the compound; None indicates that the mouse could not fall into sleep. In kind it is functional, organism-based.
The test system of series [16] is Mus musculus. The series is described as follows: Hypnotic activity expressed as sleeping time was determined in ddN strain mice by the icv administration of 2.0 uMol/mouse of the compound; None indicates that the mouse could not fall into sleep. In kind it is functional, organism-based.
In series [17] the test system is Mus musculus. The series can be described thus: Hypnotic activity expressed as ratio of number of animals slept and total number of animals tested was determined in ddN strain mice by the icv administration of 0.3 mmol/kg of the compound; 2/8. The format is functional.
Series [18] relates to Mus musculus. The series can be described thus: Hypnotic activity expressed as ratio of number of animals slept and total number of animals tested was determined in ddN strain mice by the icv administration of 0.1 mmol/kg of the compound; 0/8. In kind it is functional.
For series [19], the system named is Mus musculus. The series can be described thus: Hypnotic activity expressed as sleeping time was determined in ddN strain mice by the icv administration of 1.0 uMol/mouse of the compound; None indicates that the mouse could not fall into sleep. The format is functional, organism-based.
Series [20] relates to Mus musculus. The series can be described thus: Hypnotic activity expressed as ratio of number of animals slept and total number of animals tested was determined in ddN strain mice by the icv administration of 0.5 mmol/kg of the compound; 5/8. The format is functional.
The test system of series [21] is Mus musculus. The series can be described thus: Hypnotic activity expressed as sleeping time was determined in ddN strain mice by the icv administration of 12.0 uMol/mouse of the compound. The format is functional.
Series [22] relates to Mus musculus. The series can be described thus: Hypnotic activity expressed as sleeping time was determined in ddN strain mice by the iv administration of 0.5 umol/kg of the compound; None indicates that the mouse could not fall into sleep. In kind it is functional, organism-based.
Series [23] concerns Mus musculus. The series can be described thus: Tested for PB (pentobarbital)-induced sleep effect expressed as percent control of sleeping time at a dosage (icv) of 1.0 uM concentration. The format is functional.
Series [24] has as its system Mus musculus. The series is described as follows: Tested for PB (pentobarbital)-induced sleep effect expressed as percent control of sleeping time at a dosage (icv) of 2.4 uM concentration. The format is functional.
Series [25] relates to Mus musculus. The series can be described thus: Hypnotic activity expressed as ratio of number of animals slept and total number of animals tested was determined in ddN strain mice by the icv administration of 0.3 mmol/mouse of the compound; 8/8. The format is functional.
Series [26] has as its system Mus musculus. The series can be described thus: Hypnotic activity expressed as sleeping time was determined in ddN strain mice by the icv administration of 3.8 uMol/mouse of the compound. The format is functional.
Series [27] deals with Mus musculus. The series can be described thus: Hypnotic activity expressed as ratio of number of animals slept and total number of animals tested was determined in ddN strain mice by the icv administration of 0.1 mmol/mouse of the compound; 0/8. In kind it is functional.
Series [28] relates to Mus musculus. The series is described as follows: Hypnotic activity expressed as sleeping time was determined in ddN strain mice by the icv administration of 0.1 mmol/mouse of the compound; None indicates that the mouse could not fall into sleep. In kind it is functional, organism-based.
Series [29] relates to Mus musculus. The series can be described thus: Hypnotic activity expressed as ratio of number of animals slept and total number of animals tested was determined in ddN strain mice by the icv administration of 0.3 mmol/mouse of the compound; 7/8. The format is functional.

Take `Cc1ccccc1Cn1c(=O)ccn(C2O[C@H](CO)[C@@H](O)[C@H]2O)c1=O` (stereo partly drawn): the Sleeping time in [1] is 45 min; in series [3], 72 min and 70 min; in series [7] it was “None”; in series [8], 129 min. In addition, the “Sleeping time (% of control)” value in [2] is reported as 344%. For the same molecule, the Activity came out at 8 in series [4], 6 in series [5] and 4 in series [6].

Turning to `COC[C@H]1O[C@@H](n2ccc(=O)n(Cc3ccccc3)c2=O)[C@H](OC)[C@@H]1OC`, the Sleeping time in series [9] was 29 min; in series [3] it was 6 min; in series [10], “None”; in [11], 6 min. Besides, the “Sleeping time (% of control)” value in series [2] came to 200%. Moreover, the Partition coefficient in [12] is listed as 64.45.

`CCCn1c(=O)ccn(C2O[C@H](CO)[C@@H](O)[C@H]2O)c1=O` (stereo partly drawn): the Sleeping time result in series [7] and in series [13] was “None” throughout. In addition, the Control in [14] amounted to 134%.

Turning to `Cn1c(=O)ccn(C2O[C@H](CO)[C@@H](O)[C@H]2O)c1=O` (stereo partly drawn), the Sleeping time entry in series [7] and in series [13] was “None” each time. The Control in series [14] was found to be 117%.

For the molecule `CC(=O)OC[C@H]1O[C@@H](n2ccc(=O)n(Cc3ccccc3)c2=O)[C@H](OC(C)=O)[C@@H]1OC(C)=O`, the Sleeping time in series [9] was 5 min; in series [3], 4 min; in [10], “None”; in series [11] it was 1 min. Further, the “Sleeping time (% of control)” value in series [2] is 186%. For the same molecule, the Partition coefficient in series [12] was 32.73.

With `O=c1[nH]c(=O)n(C2CCCO2)cc1F` (stereo not drawn) [TEGAFUR], the Sleeping time result in series [15], in series [10], in series [7] and in [16] was “None” throughout. Moreover, the “Sleeping time (% of control)” value in series [2] worked out at 139%. Further, in series [12], the Partition coefficient turned out to be 0.35.

Regarding `CC(C)=CCn1c(=O)ccn(C2O[C@H](CO)[C@@H](O)[C@H]2O)c1=O` (stereo partly drawn), the Sleeping time result in series [7] and in [13] was “None” in each case. The molecule further displayed a Control in series [14] of 228%.

Take `C=CCn1c(=O)ccn(C2O[C@H](CO)[C@@H](O)[C@H]2O)c1=O` (stereo partly drawn): the Sleeping time result in series [7] and in [13] was “None” each time. In series [14], this molecule yielded a Control of 173%.

Turning to `CC(c1ccccc1)n1c(=O)ccn(C2O[C@H](CO)[C@@H](O)[C@H]2O)c1=O` (stereo partly drawn), in [2], the “Sleeping time (% of control)” value is 231%. Further, the Activity is 2 in series [17], 0 in [18] and 5 in [20]. The Sleeping time in [3] was 7 min; in series [7], “None”; in series [8], 27 min; in series [19] it was “None”. Further, the Control in [14] stood at 303%.

For `CCn1c(=O)ccn(C2O[C@H](CO)[C@@H](O)[C@H]2O)c1=O` (stereo partly drawn), the Sleeping time result in series [7] and in [13] was “None” each time. The Control in [14] worked out at 124%.

For the molecule `CC(=O)OC[C@H]1O[C@@H](n2ccc(=O)[nH]c2=O)[C@H](OC(C)=O)[C@@H]1OC(C)=O` [URIDINE TRIACETATE], in series [2], the “Sleeping time (% of control)” value is 178%. Also, the values for the Sleeping time in series [3] and in series [7] were 8 min and “None”, respectively.

Take `O=c1c(F)cn(C2CCCO2)c(=O)n1Cc1ccccc1` (stereo not drawn): the Sleeping time in [9] is given as 7 min; in [3], 3 min; in series [10], “None”; in [11], 2 min. For the same molecule, in series [2], the “Sleeping time (% of control)” value was 262%. The Partition coefficient in [12] is 23.94.

Take `O=c1ccn(Cc2ccccc2)c(=O)n1Cc1ccccc1`: the Sleeping time in [9] was 17 min; in series [21] it was 15 min; in [16], “None”. Besides, in series [14], the Control was 112%.

Turning to `Cc1ccc(Cn2c(=O)ccn(C3O[C@H](CO)[C@@H](O)[C@H]3O)c2=O)cc1` (stereo partly drawn), the “Sleeping time (% of control)” value in series [2] came to 308%. Further, the Sleeping time is reported as 36 min in series [3] and “None” in series [22].

With `O=c1ccn(C2O[C@H](CO)[C@@H](O)[C@H]2O)c(=O)n1Cc1ccc(Cl)cc1` (stereo partly drawn), the Sleeping time in [3] was 20 min; in series [7], “None”. In series [14], this molecule displayed a Control of 203%.

As for `O=c1ccn(Cc2ccccc2)c(=O)[nH]1`, the “Sleeping time (% of control)” value in series [2] amounted to 86%. In addition, the Sleeping time result in series [7] and in series [16] was “None” throughout.

On to `Cc1cccc(Cn2c(=O)ccn(C3O[C@H](CO)[C@@H](O)[C@H]3O)c2=O)c1` (stereo partly drawn), for which the “Sleeping time (% of control)” value in [2] is 326%. For the same molecule, the Sleeping time is 56 min in series [3] and “None” in [7].

With `COC[C@H]1O[C@@H](n2ccc(=O)[nH]c2=O)[C@H](OC)[C@@H]1OC`, the Sleeping time entry in series [15], in series [10], in series [7] and in [16] was “None” in each case. This molecule gave a Control in series [2] of 144%. This molecule gave a Partition coefficient in series [12] of 2.16.

Take `O=c1cc[nH]c(=O)[nH]1` [URACIL]: the Sleeping time entry in series [7] and in [16] was “None” in each case. The molecule further yielded a Control in series [23] of 99%.

On to `O=c1ccn([C@@H]2O[C@H](CO)[C@@H](O)[C@H]2O)c(=O)[nH]1` [URIDINE], for which the figures for the Control in series [24], in series [14] and in series [23] were 135%, 138% and 93%, respectively. Also, the Sleeping time entry in series [7] and in series [13] was “None” in each case.

As to `O=c1ccn(C2O[C@H](CO)[C@@H](O)[C@H]2O)c(=O)n1Cc1ccccc1` (stereo partly drawn), the Sleeping time entry was “None” in series [15]; 153 min in [26]; 36 min and 28 min in series [3]; “None” in series [10]; “None” in series [28]; “None” in series [7]. Also, the Sleeping time in series [8] came to 106 min. The “Sleeping time (% of control)” value in series [2] is on record as 292%. The Activity in series [25] is 8; in [27], 0; in [29], 7. The Control is listed as 404% in [14] and 154% in series [23]. This molecule also returned a Partition coefficient in [12] of 2.16.
